# In patent US11040036B2, “Pyruvate kinase activators for use in treating blood disorders” (Agios Pharmaceuticals, Inc., priority 2017, dated 2021):
# Key:
# [1] = molecular target: T1, wild type PKR (Homo sapiens, UniProt P30613); assay: PKR mutant assay (AC50), wild type PKR; type: biochemical; conditions: wild type PKR enzyme; read-out: PKR WT AC50
# Method in brief: (§1)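 Compounds were tested from 100 μM final, 3-fold over 11 points, and held 60 min at room temperature with enzyme (40-400 ng/well wild-type, R510Q or K410E PKR). ADP 0.2-1.65 mM then started the reaction, with PEP 0.1-0.5 mM in pH 7.5 Tris/KCl/MgCl2 buffer. LDH/NADH (180 μM) coupled read-out was taken as A340 change, fitted to AC50.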
# [2] = molecular target: PKR R510Q (Homo sapiens, UniProt P30613, R510Q); assay: PKR mutant assay (AC50), PKR R510Q; type: biochemical; conditions: PKR R510Q mutant enzyme; read-out: PK R510Q AC50
# Method in brief: as §1
# [3] = molecular target: T1, wild type PKR; assay: Cell based ATP assay in purified red blood cells; set-up: endogenous in cells; host or cells: purified red blood cells from blood of healthy volunteers; conditions: RBCs, overnight at 37° C., ATP levels by Cell-Titer-Glo
# Method in brief: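 ATP content was measured by CellTiter-Glo after overnight exposure to compound at 37 °C. Cells were purified red blood cells from healthy donors, filtered to remove leukocytes and suspended at 1×10^7 cells/mL in AGAM medium. Compounds were serially diluted 1:4, with 0.1% DMSO final.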
# [4] = molecular target: PKR K410E (Homo sapiens, UniProt P30613, K410E); assay: PKR mutant assay (AC50), PKR K410E; type: biochemical; conditions: PKR K410E mutant enzyme
# Method in brief: as §1
# Chain of PKR R510Q (P30613 whole entry R510Q): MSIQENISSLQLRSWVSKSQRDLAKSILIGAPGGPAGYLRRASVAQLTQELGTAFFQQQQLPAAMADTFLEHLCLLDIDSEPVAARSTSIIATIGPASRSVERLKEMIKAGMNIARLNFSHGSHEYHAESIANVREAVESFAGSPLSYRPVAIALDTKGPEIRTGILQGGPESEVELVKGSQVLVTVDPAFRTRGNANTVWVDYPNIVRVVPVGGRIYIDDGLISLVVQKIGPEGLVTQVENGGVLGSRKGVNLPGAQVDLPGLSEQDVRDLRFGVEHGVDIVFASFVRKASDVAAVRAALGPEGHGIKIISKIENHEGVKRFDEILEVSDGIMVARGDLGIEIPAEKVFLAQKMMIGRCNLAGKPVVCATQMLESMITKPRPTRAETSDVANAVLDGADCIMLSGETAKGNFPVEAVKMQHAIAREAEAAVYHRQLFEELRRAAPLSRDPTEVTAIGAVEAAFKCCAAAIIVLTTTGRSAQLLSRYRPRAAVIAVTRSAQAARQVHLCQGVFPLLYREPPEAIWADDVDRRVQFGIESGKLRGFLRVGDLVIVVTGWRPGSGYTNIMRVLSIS
# Chain of PKR K410E (P30613 whole entry K410E): as the sequence (P30613 whole entry R510Q) above, with K410E, Q510R counted along it
# T1 sequence (P30613 whole entry): as the sequence (P30613 whole entry R510Q) above, with Q510R counted along it
Structure (SMILES),AC50 [1] [nM],AC50 [2] [nM],AC50 [3] [nM],AC50 [4] [nM]
Cn1c2nc(Cc3cc[nH]n3)sc2c2cnn(Cc3ccn[nH]3)c(=O)c21,< 300,< 300,≤ 1000,< 300
Cn1c2nc(Cc3cc[nH]n3)sc2c2cnn(Cc3csc(CO)n3)c(=O)c21,< 300,< 300,≤ 1000,< 300
Cn1c2nc(Cc3cscn3)sc2c2cnn(Cc3cc[nH]n3)c(=O)c21,< 300,< 300,≤ 1000,< 300
Cn1c2nc(Cc3c[nH]nn3)sc2c2cnn(Cc3nccs3)c(=O)c21,301 to 800,< 300,≤ 1000,< 300
Cn1ccc(Cn2ncc3c4sc(Cc5ccccn5)nc4n(C)c3c2=O)n1,< 300,< 300,≤ 1000,< 300
Cn1ccc(Cn2ncc3c4sc(Cc5csc(CO)n5)nc4n(C)c3c2=O)n1,< 300,< 300,≤ 1000,< 300
Cn1c2nc(Cc3cc[nH]n3)sc2c2cnn(Cc3cocn3)c(=O)c21,< 300,< 300,≤ 1000,< 300
Cn1c2nc(Cc3c[nH]nn3)sc2c2cnn(Cc3cscn3)c(=O)c21,< 300,< 300,≤ 1000,< 300
Cn1c2nc(Cc3ccccn3)sc2c2cnn(Cc3c[nH]nn3)c(=O)c21,< 300,< 300,≤ 1000,< 300
Cn1c2nc(Cc3cc[nH]n3)sc2c2cnn(Cc3ncsc3N)c(=O)c21,< 300,< 300,≤ 1000,< 300
Cn1c2nc(Cc3ncsc3Br)sc2c2cnn(Cc3cc[nH]n3)c(=O)c21,< 300,< 300,≤ 1000,< 300
Cn1ccc(Cn2ncc3c4sc(Cc5c[nH]nn5)nc4n(C)c3c2=O)n1,< 300,< 300,≤ 1000,< 300
Cn1c2nc(Cc3c[nH]nn3)sc2c2cnn(Cc3cc[nH]n3)c(=O)c21,< 300,< 300,≤ 1000,< 300
Cn1c2nc(Cc3cc[nH]n3)sc2c2cnn(Cc3nncs3)c(=O)c21,< 300,< 300,≤ 1000,< 300
